These results are taken from patent US12516039B2, “N-linked isoquinoline amides as LRRK2 inhibitors, pharmaceutical compositions, and uses thereof” (Merck Sharp & Dohme LLC, priority 2020, dated 2026).

For one test, the target named is T1, GST-tagged truncated human mutant G2019S LRRK2 (Homo sapiens, UniProt Q5S007, G2019S).
T1 construct: GST-tagged truncated human mutant G2019S LRRK2; purchased Life Technologies Corporation (Carlsbad, CA)
T1 sequence (Q5S007 970-2527 G2019S limits assumed): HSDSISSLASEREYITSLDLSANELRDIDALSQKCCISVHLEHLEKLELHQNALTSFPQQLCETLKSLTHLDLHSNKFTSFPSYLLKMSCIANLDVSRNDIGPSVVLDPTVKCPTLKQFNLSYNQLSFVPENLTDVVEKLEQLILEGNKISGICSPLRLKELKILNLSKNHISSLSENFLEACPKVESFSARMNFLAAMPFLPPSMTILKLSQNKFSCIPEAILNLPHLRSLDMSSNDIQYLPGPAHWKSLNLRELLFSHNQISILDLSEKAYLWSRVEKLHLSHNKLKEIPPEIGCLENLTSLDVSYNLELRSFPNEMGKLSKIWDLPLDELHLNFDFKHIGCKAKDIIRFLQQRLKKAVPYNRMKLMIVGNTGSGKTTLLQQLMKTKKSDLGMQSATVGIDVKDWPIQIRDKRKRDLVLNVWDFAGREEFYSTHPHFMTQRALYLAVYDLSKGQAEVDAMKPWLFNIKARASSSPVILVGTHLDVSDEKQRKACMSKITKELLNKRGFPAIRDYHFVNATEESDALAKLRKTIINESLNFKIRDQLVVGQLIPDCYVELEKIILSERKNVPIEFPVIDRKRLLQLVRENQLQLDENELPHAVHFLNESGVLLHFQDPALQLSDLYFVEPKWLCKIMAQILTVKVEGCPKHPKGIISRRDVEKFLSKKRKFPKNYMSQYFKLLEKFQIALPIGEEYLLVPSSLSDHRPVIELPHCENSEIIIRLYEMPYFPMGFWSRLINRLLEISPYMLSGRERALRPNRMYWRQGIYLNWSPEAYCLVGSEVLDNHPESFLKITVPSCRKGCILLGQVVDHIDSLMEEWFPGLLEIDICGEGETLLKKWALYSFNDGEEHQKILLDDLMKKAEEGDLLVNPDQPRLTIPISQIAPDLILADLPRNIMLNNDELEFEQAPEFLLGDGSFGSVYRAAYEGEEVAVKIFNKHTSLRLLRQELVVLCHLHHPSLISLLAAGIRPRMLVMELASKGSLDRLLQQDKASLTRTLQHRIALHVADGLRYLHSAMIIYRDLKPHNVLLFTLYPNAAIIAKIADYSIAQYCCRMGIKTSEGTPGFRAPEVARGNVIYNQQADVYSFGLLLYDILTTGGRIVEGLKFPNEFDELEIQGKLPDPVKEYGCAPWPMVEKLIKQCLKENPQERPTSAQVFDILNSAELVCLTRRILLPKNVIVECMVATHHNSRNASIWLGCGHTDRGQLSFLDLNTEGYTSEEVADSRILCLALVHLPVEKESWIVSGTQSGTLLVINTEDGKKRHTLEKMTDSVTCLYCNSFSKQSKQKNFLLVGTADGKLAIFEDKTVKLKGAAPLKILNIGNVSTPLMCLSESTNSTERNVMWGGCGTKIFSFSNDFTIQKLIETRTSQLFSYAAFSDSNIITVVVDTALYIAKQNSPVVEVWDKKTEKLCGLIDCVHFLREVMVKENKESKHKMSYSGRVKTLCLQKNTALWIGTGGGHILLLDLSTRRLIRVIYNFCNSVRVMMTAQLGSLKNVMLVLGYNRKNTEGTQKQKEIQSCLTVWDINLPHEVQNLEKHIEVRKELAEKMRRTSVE
In words: LRRK2 G2019S Km ATP LanthaScreen assay. Format: biochemical. To be noted: 134 μM ATP (Km ATP), LRRKtide substrate, mean of several tests. Put shortly: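 IC50 values are means of repeat runs, fitted with a 4-parameter logistic to the 520/495 nm TR-FRET ratio from a Tb-labeled anti-phospho-LRRKtide antibody added with EDTA. Reactions ran 90 min at room temperature at Km ATP (134 μM) with fluorescein-LRRKtide, after 15-min compound preincubation with truncated GST-tagged G2019S LRRK2.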
With `CCC1(N2CCN(c3cc4cc(NC(=O)C5CC56CCOCC6)ncc4cc3C)CC2)COCC1O` (centres unmarked) [Ex-6.12], the “LRRK2 pIC50” value came to 9.67.

For `CC1(C#N)CCN(c2cc3cc(NC(=O)C4CC45CCOCC5)ncc3cc2Cl)CC1` (centres unmarked) [Ex-4.8], the “LRRK2 pIC50” value is listed as 6.68.

Turning to “(1R,2R,3R, or 1R,2S,3R, or 1S,2R,3S, or 1S,2S,3S)-N-[6-[4-((3R,4R or 3S,4S)-4-fluoro-3-methyl-tetrahydrofuran-3-yl)piperazin-1-yl]-7-methyl-3-isoquinolyl]-2-methyl-3-(1-methylpyrazol-4-yl)cyclopropanecarboxamide [Ex-10.58]”, the “LRRK2 pIC50” value is reported as 10.09.

Regarding `CC1(N2CCN(c3cc4cc(NC(=O)C5CCCO5)ncc4cc3Cl)CC2)COCC1O` (centres unmarked) [Ex-9.4], the “LRRK2 pIC50” value was found to be 8.40.

For “(3R or 3S)-N-[6-[4-((3R,4R or 3S,4S)-4-fluoro-3-methyl-tetrahydrofuran-3-yl)piperazin-1-yl]-7-methyl-3-isoquinolyl]-5,5-dimethyl-tetrahydrofuran-3-carboxamide [Ex-10.94]”, the “LRRK2 pIC50” value was determined as 9.40.

In the case of “(1R,2R,3R, or 1R,2S,3R, or 1S,2R,3S, or 1S,2S,3S)-N-[7-chloro-6-[4-((3R,4R or 3S,4S)-4-fluoro-3-methyl-tetrahydrofuran-3-yl)piperazin-4-ium-1-yl]-3-isoquinolyl]-2-methyl-3-(2-pyridyl)cyclopropanecarboxamide [Ex-10.72]”, the “LRRK2 pIC50” value came out at 10.09.

Still in this test, the particulars now being: 134 μM ATP (Km ATP), LRRKtide substrate, mean of several tests, read-out: LRRK2 pIC50 (converted).
Turning to `Cc1cc2cnc(NC(=O)C3CC34CCOC4)cc2cc1N1CCN(C2(C)COCC2O)CC1` (single isomer, unassigned) [Ex-6.8, (1R, 3S or 1S,3R, or 1R,3S, or 1S,3S)-N-(6-(4-((3R, 4R or 3S,4S)-4-hydroxy-3-methyltetrahydrofuran-3-yl)piperazin-1-yl)-7-methylisoquinolin-3-yl)-5-oxaspiro[2.4]heptane-1-carboxamide], the IC50 is 631 nM.

Regarding `COC1CC(C(=O)Nc2cc3cc(N4CCN(C5(C)COCC5O)CC4)c(Cl)cc3cn2)C1` (single isomer, unassigned) [Ex-7.1], the IC50 was 0.832 nM.

As for `CC1(N2CCN(c3cc4cc(NC(=O)C5CC56CCCOC6)ncc4cc3Cl)CC2)COCC1O` (single isomer, unassigned) [Ex-1.12, (1R,3S, or 1R,3R, or 1S,3S, or 1S,3R)-N-(7-chloro-6-(4-((3R,4R or 3S,4S)-4-hydroxy-3-methyltetrahydrofuran-3-yl)piperazin-1-yl)isoquinolin-3-yl)-5-oxaspiro[2.5]octane-1-carboxamide], the IC50 is 3.72 nM.

Take `CC1(N2CCN(c3cc4cc(NC(=O)C5CC5C(F)F)ncc4cc3Cl)CC2)COCC1F` (single isomer, unassigned) [Ex-10.76, (1R,2R or 1S,2S)-N-[7-chloro-6-[4-((3R,4R or 3S,4S)-4-fluoro-3-methyl-tetrahydrofuran-3-yl)piperazin-1-yl]-3-isoquinolyl]-2-(difluoromethyl)cyclopropanecarboxamide]: the IC50 was 0.0813 nM.

In the case of `Cn1ncc(C2CC2C(=O)Nc2cc3cc(N4CCN(C5(C)COCC5F)CC4)c(Cl)cc3cn2)c1C(F)(F)F` (single isomer, unassigned) [Ex-10.62, (1R,2R or 1S,2S)-N-[7-chloro-6-[4-((3R,4R or 3S,4S)-4-fluoro-3-methyl-tetrahydrofuran-3-yl)piperazin-4-ium-1-yl]-3-isoquinolyl]-2-[1-methyl-5-(trifluoromethyl)pyrazol-4-yl]cyclopropanecarboxamide], the IC50 was 0.0813 nM.

For the compound `Cc1cc2cnc(NC(=O)C3CC34CCOC4)cc2cc1N1CCN(C2(C)COCC2O)CC1` (single isomer, unassigned) [Ex-6.6, (1R, 3S or 1S,3R, or 1R,3S, or 1S,3S)-N-(6-(4-((3R, 4R or 3S,4S)-4-hydroxy-3-methyltetrahydrofuran-3-yl)piperazin-1-yl)-7-methylisoquinolin-3-yl)-5-oxaspiro[2.4]heptane-1-carboxamide], the IC50 was 45.7 nM.

Consider `CC1(N2CCN(c3cc4cc(NC(=O)C5CC56CC6)ncc4cc3Cl)CC2)COCC1O` (single isomer, unassigned) [Ex-2.12, (R or S)-N-(7-chloro-6-(4-((3R,4R or 3S,4S)-4-hydroxy-3-methyltetrahydrofuran-3-yl)piperazin-1-yl)isoquinolin-3-yl)spiro[2.2]pentane-1-carboxamide], for which the IC50 was 0.513 nM.

`Cc1cc2cnc(NC(=O)C3C4CCOCC43)cc2cc1N1CCN(C2(C)CCOC2)CC1` (single isomer, unassigned) [Ex-10.46, (1S,6R,7R, 1R,6S,7R, or 1R, 6S,7S, or 1S,6S,7S)-N-(7-methyl-6-(4-((R or S)-3-methyltetrahydrofuran-3-yl)piperazin-1-yl)isoquinolin-3-yl)-3-oxabicyclo[4.1.0]heptane-7-carboxamide]: the IC50 was 0.457 nM.

Consider `CC1(N2CCN(c3cc4cc(NC(=O)C5CCC56CCOCC6)ncc4cc3Cl)CC2)COCC1O` (single isomer, unassigned) [Ex-1.27, (R or S)-N-(7-chloro-6-(4-((3R,4R or 3S,4S)-4-hydroxy-3-methyltetrahydrofuran-3-yl)piperazin-1-yl)isoquinolin-3-yl)-7-oxaspiro[3.5]nonane-1-carboxamide], for which the IC50 is 1.29 nM.

`Cn1ncc(C2CC2C(=O)Nc2cc3cc(N4CCN(C5(C)CCOC5)CC4)c(Cl)cc3cn2)c1C(F)(F)F` (single isomer, unassigned) [Ex-10.26, (1R,2R or 1S,2S)-N-[7-chloro-6-[4-((R or S)-3-methyltetrahydrofuran-3-yl)piperazin-4-ium-1-yl]-3-isoquinolyl]-2-[1-methyl-5-(trifluoromethyl)pyrazol-4-yl]cyclopropanecarboxamide]: the IC50 is 525 nM.

Take `CCOC1CC2(C1)CC2C(=O)Nc1cc2cc(N3CCN(C4(C)COCC4F)CC3)c(Cl)cc2cn1` (single isomer, unassigned) [Ex-10.23, (1R,2R or 1S,2S)-N-[7-chloro-6-[4-((3R,4R or 3S,4S)-4-fluoro-3-methyl-tetrahydrofuran-3-yl)piperazin-1-yl]-3-isoquinolyl]-5-ethoxy-spiro[2.3]hexane-2-carboxamide]: the IC50 is 0.724 nM.

For the compound `O=C(Nc1cc2cc(N3C(=O)C4CCC3C4)ccc2cn1)C1CC1` (single isomer, unassigned) [Ex-5.2], the IC50 was 25.7 nM.

Take `Cc1cc2cnc(NC(=O)C3CCOC(C)(C)C3)cc2cc1N1CCN(C2(C)CCOC2)CC1` (single isomer, unassigned) [Ex-10.44, (4R or 4S)-2,2-dimethyl-N-[7-methyl-6-[4-((R or S)-3-methyltetrahydrofuran-3-yl)piperazin-1-yl]-3-isoquinolyl]tetrahydropyran-4-carboxamide]: the IC50 was 209 nM.

For the compound `CC1(N2CCN(c3cc4cc(NC(=O)C5CC56CC6)ncc4cc3Cl)CC2)COCC1F` (single isomer, unassigned) [Ex-10.80, (R or S)-N-[7-chloro-6-[4-((3R,4R or 3S,4S)-4-fluoro-3-methyl-tetrahydrofuran-3-yl)piperazin-1-yl]-3-isoquinolyl]spiro[2.2]pentane-2-carboxamide], the IC50 was 0.123 nM.

`Cc1cc2cnc(NC(=O)C3C4CCOCC43)cc2cc1N1CCN(C2(C)CCOC2)CC1` (single isomer, unassigned) [Ex-10.45, (1S,6R,7R, 1R,6S,7R, or 1R, 6S,7S, or 1S,6S,7S)-N-(7-methyl-6-(4-((R or S)-3-methyltetrahydrofuran-3-yl)piperazin-1-yl)isoquinolin-3-yl)-3-oxabicyclo[4.1.0]heptane-7-carboxamide]: the IC50 is 0.145 nM.

On to `CC1(N2CCN(c3cc4cc(NC(=O)C5CC56CC6)ncc4cc3Cl)CC2)COCC1O` (single isomer, unassigned) [Ex-2.14, (R or S)-N-(7-chloro-6-(4-((3R,4R or 3S,4S)-4-hydroxy-3-methyltetrahydrofuran-3-yl)piperazin-1-yl)isoquinolin-3-yl)spiro[2.2]pentane-1-carboxamide], for which the IC50 was 0.468 nM.

As to `Cn1ncc(C2CC2C(=O)Nc2cc3cc(N4CCN(C5(C)CCOC5)CC4)c(Cl)cc3cn2)c1C(F)(F)F` (single isomer, unassigned) [Ex-10.25, (1R,2R or 1S,2S)-N-[7-chloro-6-[4-((R or S)-3-methyltetrahydrofuran-3-yl)piperazin-4-ium-1-yl]-3-isoquinolyl]-2-[1-methyl-5-(trifluoromethyl)pyrazol-4-yl]cyclopropanecarboxamide], the IC50 was 3.72 nM.

Turning to `CC1(N2CCN(c3cc4cc(NC(=O)C5CC5c5ccco5)ncc4cc3Cl)CC2)COCC1O` (single isomer, unassigned) [Ex-10.29, (1R,2R or 1S,2S)-N-[7-chloro-6-[4-((3R,4R or 3S,4S)-4-hydroxy-3-methyl-tetrahydrofuran-3-yl)piperazin-1-yl]-3-isoquinolyl]-2-(2-furyl)cyclopropanecarboxamide], the IC50 is 0.275 nM.

Consider `CC1(N2CCN(c3cc4cc(NC(=O)C5CC5C5CCOCC5)ncc4cc3Cl)CC2)COCC1F` (single isomer, unassigned) [Ex-10.69, (1R,2R or 1S,2S)-N-[7-chloro-6-[4-((3R,4R or 3S,3S)-4-fluoro-3-methyl-tetrahydrofuran-3-yl)piperazin-1-yl]-3-isoquinolyl]-2-tetrahydropyran-4-yl-cyclopropanecarboxamide], for which the IC50 was 0.0813 nM.

For the compound `CC1(N2CCN(c3cc4cc(NC(=O)C5CC5c5cccs5)ncc4cc3Cl)CC2)COCC1O` (single isomer, unassigned) [Ex-10.13, (1R,2R or 1R,2S)-N-[7-chloro-6-[4-((3R,4R or 3S,4S)-4-hydroxy-3-methyl-tetrahydrofuran-3-yl)piperazin-1-yl]-3-isoquinolyl]-2-(2-thienyl)cyclopropanecarboxamide], the IC50 is 0.0813 nM.
